Reference: patent publication US20100050299A1, “POST-HARVEST TREATMENT OF FRUITS WITH AN ANTIFUNGAL COMPOSITION” (priority 2006, published 2010)

Assays:
[1] = test system: Colletotridcum musae CBS19231; assay: Treatment of bananas wounded with a cork borer and contaminated with mould spores, then dipped (Example 1); type: in vivo; settings: for Number of wounds showing mould growth/Total number of wounds: after 15 days at 21° C., dipped one minute, 1000 ppm natamycin, 240 mM potassium phosphite, 6 wounds (3 bananas with 2 wounds per banana); for wounds showing mould growth: after 15 days, out of 6 wounds
Protocol: (§1) In this experiment organic bananas, Sabrosa® from the Dominican Republic, were used. The bananas were obtained from a local retailer in The Netherlands. The bananas were treated with spores of the phytopathogenic mould Colletotridcum musae CBS19231. The mould spores were obtained using well-known methods. The bananas were injured according to the method described by de Lapere de Bellaire and Dubois (1987). Bananas were wounded two times using a cork borer followed by contamination with approximately 2.5×10^4 mould spores of C. musae CBS19231 per wound. After incubation for 4 hours at room temperature, the bananas were dipped for one minute in one of the following compositions: a) no treatment (control 1), b) dipped in water (control 2), c) dipped in 1000 ppm natamycin, d) dipped in 240 mM of potassium phosphite, e) dipped in 1000 ppm of natamycin+240 mM of potassium phosphite. The experiment was executed in triplo; the natamycin and potassium phosphite solution were prepared using well-known methods. All compositions contained 0.1% (v/v) of the sticking agent Bond® (Loveland Industries Ltd.) and 0.14% (v/v) of the surfactant Zipper® (Asepta BV, The Netherlands). After this treatment the bananas were incubated in closed boxes at 21° C. at elevated humidity. Each day the bananas were judges visually on mould development.

[2] = test system: Colletotridcum musae CBS19231; assay: Treatment of freshly harvested banana clusters (Example 3); type: in vivo; settings: for bananas of the clusters on which moulds were observed: after 15 days of incubation, 12 bananas; for Number of bananas showing mould growth/Total number of bananas: after 15 days, freshly harvested, 12 bananas (3 clusters with 4 bananas per cluster)
Protocol: as §1
(§2) In this experiment freshly harvested bananas were used. A few days after harvesting and the de-latexing treatment to remove latex which is leaking from the wounds using well-known methods, the bananas were infected with mould spores and treated as described in Example 1. For each composition, 3 clusters comprising 4 bananas per cluster were used (experiment done in triplo).

[3] = test system: Colletotridcum musae CBS19231; assay: Treatment of bananas, Neocryl and xanthan instead of Bond and Zipper (Example 5); type: in vivo; settings: after 15 days; for wounds showing mould growth: 12 wounds; for Number of wounds showing mould growth/Total number of wounds: Neocryl 21.3 g/l and xanthan 1.0 g/l, 12 wounds (6 bananas with 2 wounds per banana)
Protocol: as §1
The experiment described herein was executed as described in Example 1. However, in this experiment the sticking agent Bond® and the surfactant Zipper® were not used; instead Neocryl® (DSM) and xanthan were applied in a concentration of respectively 21.3 g/l and 1.0 g/l. In this experiment 12 wounds were made instead of 6 (2 wounds per banana; 6 bananas wounded).

[4] = test system: Colletotridcum musae CBS19231; assay: Treatment of bananas with wounds made with a knife at the stalk (Example 2); type: in vivo; settings: for wounds/bananas with mould growth: after 15 days of incubation, 3 bananas, wound at the stalk; for Number of wounds showing mould growth/Total number of wounds: after 15 days, 3 wounds (3 bananas with 1 wound made at the stalk per banana)
Protocol: as §1
The experiment described in this example was done identically compared to the experiment described in Example 1, with the proviso that the wounds were made with a knife at the stalk of the bananas.

[5] = test system: Colletotridcum musae CBS19231; assay: Treatment of banana clusters wounded at the hand, Neocryl and xanthan instead of Bond and Zipper (Example 6); type: in vivo; settings: for wounds with mould growth: after 15 days of incubation, 6 wounds; for Number of wounds showing mould growth/Total number of wounds: after 15 days, Neocryl 21.3 g/l and xanthan 1.0 g/l, 6 wounds (3 clusters, 2 wounds per cluster at the hand)
Protocol: as §1, §2
(§3) The experiment described in this example was done identically compared to the experiment described in Example 3, with the proviso that bananas were harvested and thereafter new wounds were made with a knife at the stalk of the banana clusters (2 wounds were made per cluster).
The experiment described herein was executed as described in Example 4, with the proviso that the sticking agent Bond® and the surfactant Zipper® were replaced by Neocryl® (DSM) and xanthan in a concentration of respectively 21.3 g/l and 1.0 g/l. Three clusters comprising 4 bananas each were wounded two times at the hand of the cluster resulting in a total number of wounds of 6.

[6] = test system: Colletotridcum musae CBS19231; assay: Treatment of freshly harvested banana clusters, new wounds made with a knife at the stalk (Example 4); type: in vivo; settings: for mould growth on banana clusters: after 15 days of incubation, 3 banana clusters; for Number of clusters showing severe mould growth/Total number of clusters: after 15 days, freshly harvested, 3 clusters, 2 wounds per cluster at the stalk
Protocol: as §1, §2, §3

[7] = test system: moulds on bananas; settings: in vivo; cited from earlier work

| Compound | Number of wounds showing mould growth/Total number of wounds [1] | wounds showing mould growth [1] | bananas of the clusters on which moulds were observed [2] | Number of bananas showing mould growth/Total number of bananas [2] | wounds showing mould growth [3] [%] | Number of wounds showing mould growth/Total number of wounds [3] | wounds/bananas with mould growth [4] | Number of wounds showing mould growth/Total number of wounds [4] | wounds with mould growth [5] | Number of wounds showing mould growth/Total number of wounds [5] | mould growth on banana clusters [6] | Number of clusters showing severe mould growth/Total number of clusters [6] | control of moulds on bananas [7] | spectrum of action [7] |
| --- | --- | --- | --- | --- | --- | --- | --- | --- | --- | --- | --- | --- | --- | --- |
| potassium phosphite [Composition d] | 5/6 | 5 out of 6 | all bananas | 12/12 | 25 | 3/12 | all wounds | 3/3 | all wounds | 6/6 | 2 of the 3 | 2/3 |  |  |
| C[C@@H]1C/C=C/C=C/C=C/C=C/[C@H](O[C@@H]2O[C@H](C)[C@@H](O)[C@H](N)[C@@H]2O)C[C@@H]2O[C@](O)(C[C@@H](O)C[C@H]3O[C@@H]3/C=C/C(=O)O1)C[C@H](O)[C@H]2C(=O)O [Composition c, natamycin] | 6/6 | 6 | all bananas | 12/12 | 50 | 6/12 | 2 of 3 | 2/3 | all wounds | 6/6 | in all of the natamycin treated banana clusters | 3/3 | not sufficiently active | broad spectrum action |
